According to patent US9815831B2, “3,5-disubstituted-3H-imidazo[4,5-B]pyridine and 3,5-disubstituted-3H-[1,2,3]triazolo[4,5-B] pyridine compounds as modulators of c-Met protein kinases” (Rhizen Pharmaceuticals SA, priority 2012, dated 2017):
pIC50: −log10 of the molar value. Read-outs that look alike come from different tables or passages of the source.

Legend:
[1] = test system: MKN-45; assay: Inhibition of MKN-45 proliferation (MTT); assay type: cell-based, human; conditions: Homo sapiens, MKN-45 proliferation; for inhibition at 0.1 µM: 100 nM, read-out: MKN45 % inhibition @ 100 nM; for GI50: read-out: MKN45 GI50
Procedure: 3. Inhibition of MKN-45 Proliferation:
Cell proliferation assays were carried out using the high Met expressing human gastric adenocarcinoma cell line, MKN-45, according to the following schedule: • Day 1: Cells were plated in 96-well plates in complete growth medium. • Day 2: Compounds at desired concentrations were added. • Day 5: Cell viability was determined using the 3-[4,5-dimethylthiazol-2-yl]-2,5-diphenyltetrazolium bromide (MTT) dye reduction test. Results: The results are as given as % Inhibition of MKN-45 proliferation at 100 nM and GI50 values in Table 4A to 4C above. 4. Inhibition of c-Met Kinase Phosphorylation in MKN-45 Cells: […]

[2] = biological target: T1, human recombinant Met kinase (Homo sapiens, UniProt P08581); assay: Colorimetric determination of c-Met kinase activity (HTScan Met Kinase Assay Kit); assay type: biochemical; conditions: read-out: c-Met Enzyme IC50
T1 construct: purchased Cell Signalling Technology, Beverly, Mass
T1 sequence (P08581 25-1390): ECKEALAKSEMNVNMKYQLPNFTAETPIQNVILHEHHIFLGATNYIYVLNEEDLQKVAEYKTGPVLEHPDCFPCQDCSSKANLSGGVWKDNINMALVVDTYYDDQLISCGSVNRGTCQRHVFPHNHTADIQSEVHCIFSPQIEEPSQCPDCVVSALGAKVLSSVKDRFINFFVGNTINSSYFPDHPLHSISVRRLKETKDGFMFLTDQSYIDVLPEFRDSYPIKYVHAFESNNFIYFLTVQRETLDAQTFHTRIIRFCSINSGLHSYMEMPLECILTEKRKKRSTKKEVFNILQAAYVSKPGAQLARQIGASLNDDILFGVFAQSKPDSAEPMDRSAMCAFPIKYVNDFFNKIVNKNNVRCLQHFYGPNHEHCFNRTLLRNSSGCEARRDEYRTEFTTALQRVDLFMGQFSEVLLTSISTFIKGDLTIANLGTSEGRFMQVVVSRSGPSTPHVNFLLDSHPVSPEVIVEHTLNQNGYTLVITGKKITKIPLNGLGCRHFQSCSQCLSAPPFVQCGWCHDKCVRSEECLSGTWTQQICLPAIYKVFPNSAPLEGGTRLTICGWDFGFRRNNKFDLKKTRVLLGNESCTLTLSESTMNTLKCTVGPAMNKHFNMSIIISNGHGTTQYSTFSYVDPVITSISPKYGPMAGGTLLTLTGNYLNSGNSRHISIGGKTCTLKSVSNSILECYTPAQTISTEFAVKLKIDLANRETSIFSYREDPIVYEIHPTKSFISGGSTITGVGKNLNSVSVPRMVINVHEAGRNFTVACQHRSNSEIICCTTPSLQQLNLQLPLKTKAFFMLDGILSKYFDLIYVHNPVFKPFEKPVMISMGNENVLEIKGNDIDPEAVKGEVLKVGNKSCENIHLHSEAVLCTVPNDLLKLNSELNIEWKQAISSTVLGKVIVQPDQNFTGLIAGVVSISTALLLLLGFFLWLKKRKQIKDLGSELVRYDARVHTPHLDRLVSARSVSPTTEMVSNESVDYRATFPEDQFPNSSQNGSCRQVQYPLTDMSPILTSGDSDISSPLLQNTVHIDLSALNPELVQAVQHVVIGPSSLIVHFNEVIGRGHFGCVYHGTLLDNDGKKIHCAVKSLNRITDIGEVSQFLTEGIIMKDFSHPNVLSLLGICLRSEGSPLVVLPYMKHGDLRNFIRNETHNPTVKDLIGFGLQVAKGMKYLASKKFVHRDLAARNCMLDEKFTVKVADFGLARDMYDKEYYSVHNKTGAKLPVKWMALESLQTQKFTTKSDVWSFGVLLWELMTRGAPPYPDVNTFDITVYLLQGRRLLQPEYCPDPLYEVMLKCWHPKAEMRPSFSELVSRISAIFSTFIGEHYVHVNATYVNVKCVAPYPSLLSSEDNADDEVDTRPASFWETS

[3] = biological target: T1, human recombinant Met kinase; assay: as above; assay type: biochemical; conditions: for inhibition at 0.1 µM: 100 nM (cells without *), read-out: c-Met Enzyme % inhibition @ 100 nM; for inhibition: cells marked *: tested @ 300 nM, read-out: c-Met Enzyme % inhibition
Excerpt: 1. MET Kinase Assay Protocol:
Colorimetric Determination of c-Met Kinase Activity
The receptor tyrosine kinase c-Met is a heterodimeric transmembrane glycoprotein involved in several cellular processes that aid in tumor progression. Phosphorylation of the tyrosine residues in the c-Met kinase domain is critical for its activity and the resulting down-stream effects. The colorimetric assay allows detection of the phosphorylated form of a biotinylated peptide upon activation of human recombinant Met kinase.
MET Kinase Assay Protocol:
c-Met Kinase activity shall be determined using an HTScan® Met Kinase Assay Kit (Cell Signalling Technology, Beverly, Mass.) with modifications. All incubations are carried out at room temperature. Briefly, 12.5 μl of a 4× reaction cocktail (DTT/Kinase buffer containing appropriate quantity of human Met kinase) is added to each well of a 96-well plate containing 12.5 μl pre-diluted compound of interest and incubated for 5 minutes. After the initial incubation, 25 μl/well of 2×ATP/biotinylated peptide is added and incubated for an additional 30 minutes. The reaction is terminated by the addition of 50 μl/well stop buffer (50 mM EDTA, pH 8.0). The reaction mixture (25 μl/well) is then transferred to a streptavidin coated plate (Perkin Elmer, Cat#4009-0010) containing 75 μl dH2O and incubated for 60 minutes. The plate is washed with 200 μl/well wash buffer (1×PBS, 0.05% Tween-20). After washing, 100 μl/well phospho-tyrosine mAb (1:1000 in wash buffer containing 1% BSA) is added and incubated for 60 minutes. After another round of washes, 100 μl/well europium labelled anti-mouse IgG (1:500 in wash buffer containing 1% BSA) is added and incubated for an additional 30 minutes. Following additional washes, 100 μl/well Delfia^(R) enhancement solution (Perkin Elmer, Cat#1244-105) is added and incubated for 45 minutes. Florescence is measured on a microplate reader (BMG Labtech., Germany) at 340 nm (excitation) and 615 nm (emission) for calculating % inhibition. Data generated can be analyzed further using Graphpad Prism (Graphpad software, San Diego Calif.) for determination of IC50.
Results: The results are as given below in Table 4A, 4B and 4C as % Inhibition or IC50 of c-Met

Compound C/C(=N\NC(N)=O)c1ccc2ncn(Cc3ccc4ncccc4c3)c2n1 [Example 107, 2-(1-(3-(quinolin-6-ylmethyl)-3H-imidazo[4,5-b]pyridin-5-yl)ethylidene)hydrazinecarboxamide] has an inhibition at 0.1 µM ([1]; MKN-45, Table 4B) of less than 25%, a GI50 ([1]; MKN-45, Table 4B) of 250 to 1000 nM and a pIC50 ([2]; Table 4B) of 6.60 to 7.00.
With CC(=NO)c1ccc2nnn(Cc3cc4cccnc4cc3F)c2n1 [Example 59, 1-(3-((7-fluoroquinolin-6-yl)methyl)-3H-[1,2,3]triazolo[4,5-b]pyridin-5-yl) ethanone oxime] the GI50 ([1]; MKN-45, Table 4A) was 25 to 50 nM and the pIC50 ([2]; Table 4A) was 7.30 to 7.60.
With O=C(NOCCO)c1ccc(-c2ccc3nnn(Cc4ccc5ncccc5c4)c3n2)cc1 [Example 22, N-(2-hydroxyethoxy)-4-(3-(quinolin-6-ylmethyl)-3H-[1,2,3]triazolo[4,5-b]pyridin-5-yl)benzamide] the inhibition at 0.1 µM ([1]; MKN-45, Table 4A) was 50 to 75%, the GI50 ([1]; MKN-45, Table 4A) was 50 to 100 nM and the inhibition at 0.1 µM ([3]; Table 4A) was 75 to 100%.
CC(c1ccc2ncccc2c1)n1cnc2ccc(-c3ccc(C(N)=O)c(Cl)c3)nc21 (stereo not drawn) [Example 1021, 2-chloro-4-(3-(1-(quinolin-6-yl)ethyl)-3H-imidazo[4,5-b]pyridin-5-yl)benzamide] showed an inhibition at 0.1 µM ([1]; MKN-45, Table 4C) of 25 to 50% and an inhibition ([3]; Table 4C) of less than 25%.
Cc1cc(-c2ccc3nnn(Cc4ccc5ncccc5c4)c3n2)ccc1C(=O)NOC[C@@H](C)O [Example 38, (R)—N-(2-hydroxypropoxy)-2-methyl-4-(3-(quinolin-6-ylmethyl)-3H-[1,2,3]triazolo[4,5-b]pyridin-5-yl)benzamide] was tested, and the inhibition at 0.1 µM ([1]; MKN-45, Table 4A) was 75 to 100% and the inhibition at 0.1 µM ([3]; Table 4A) was 75 to 100%.
COC(=O)N/N=C(\C)c1ccc2nnn(Cc3ccc4ncccc4c3)c2n1 [Example 58, Methyl 2-(1-(3-(quinolin-6-ylmethyl)-3H-[1,2,3]triazolo[4,5-b]pyridin-5-yl)ethylidene)hydrazinecarboxylate] was tested, and the inhibition at 0.1 µM ([1]; MKN-45, Table 4A) was 25 to 50% and the inhibition ([3]; Table 4A) was less than 25%.
C/C(=N\NC(=O)OC(C)(C)C)c1ccc2nnn(Cc3ccc4ncccc4c3)c2n1 [Example 53, tert-butyl 2-(1-(3-(quinolin-6-ylmethyl)-3H-[1,2,3]triazolo[4,5-b]pyridin-5-yl)ethylidene)hydrazinecarboxylate] gave an inhibition at 0.1 µM ([1]; MKN-45, Table 4A) of less than 25% and an inhibition ([3]; Table 4A) of less than 25%.
C/C(=N\OCCO)c1ccc2nnn(Cc3ccc4ncccc4c3)c2n1 [Example 62, 1-(3-(quinolin-6-ylmethyl)-3H-[1,2,3]triazolo[4,5-b]pyridin-5-yl)ethanone O-2-hydroxyethyl oxime] showed an inhibition at 0.1 µM ([1]; MKN-45, Table 4A) of less than 25% and an inhibition ([3]; Table 4A) of less than 25%.
Compound NC(=O)CCNC(=O)c1ccc(-c2ccc3nnn(Cc4ccc5ncccc5c4)c3n2)cc1 [Example 3, N-(3-amino-3-oxopropyl)-4-(3-(quinolin-6-ylmethyl)-3H-[1,2,3]triazolo[4,5-b]pyridin-5-yl)benzamide] has a GI50 ([1]; MKN-45, Table 4A) of 100 to 250 nM and an inhibition ([3]; Table 4A) of 50 to 75%.
Work on CCNC(=O)c1c(F)cc(-c2ccc3ncn(Cc4ccc5ncccc5c4)c3n2)cc1F [Example 1016, N-ethyl-2,6-difluoro-4-(3-(quinolin-6-ylmethyl)-3H-imidazo[4,5-b]pyridin-5-yl)benzamide] yielded an inhibition at 0.1 µM ([1]; MKN-45, Table 4C) of less than 25% and an inhibition ([3]; Table 4C) of 25 to 50%.
Work on Cc1cc(-c2ccc3nnn(Cc4cc5cccnc5cc4F)c3n2)ccc1C(=O)NOCCO [Example 26, 4-(3-((7-fluoroquinolin-6-yl)methyl)-3H-[1,2,3]triazolo[4,5-b]pyridin-5-yl)-N-(2-hydroxyethoxy)-2-methylbenzamide] yielded an inhibition at 0.1 µM ([1]; MKN-45, Table 4A) of 75 to 100%, a GI50 ([1]; MKN-45, Table 4A) of 25 to 50 nM and an inhibition at 0.1 µM ([3]; Table 4A) of 75 to 100%.
With CNC(=O)CCNC(=O)c1ccc(-c2ccc3nnn(Cc4ccc5ncccc5c4)c3n2)cc1 [Example 4, N-(3-(methylamino)-3-oxopropyl)-4-(3-(quinolin-6-ylmethyl)-3H-[1,2,3]triazolo[4,5-b]pyridin-5-yl)benzamide] the GI50 ([1]; MKN-45, Table 4A) was 250 to 1000 nM and the inhibition ([3]; Table 4A) was 75 to 100%.
